Data on 29 molecules can be found in patent publication US9562060B2, “Heterocyclic pyridone compound, and intermediate, preparation method and use thereof” (SHANGHAI HUILUN LIFE SCIENCE & TECHNOLOGY CO., LTD, priority 2011, dated 2017).

In one test the target is T1, c-Met kinase (Homo sapiens, UniProt P08581).
T1 construct: purchased Invitrogen PV3143
In words: Inhibitory activity of compound to c-Met kinases (Z'-LYTE kinase assay kit). The format is biochemical. To be noted: Tyr 6 substrate peptide, read-out: Strength of activity (inhibition on c-Met kinase, IC50). The procedure:
The inhibitory activity of the compound to c-Met kinases in vitro is determined through the following method.
The method described below can be used to determine the inhibiting capacity of the compound of the present invention on the c-Met kinase activity, and the inhibiting capacity is represented by IC50. The half inhibitory concentration IC50 (a concentration of the compound for inhibiting the enzyme activity to 50%) of the compound is obtained by: mixing and reacting a certain amount of kinase with a specific substrate and different concentrations of test compound, and then labeling the substrate with an anti-phosphotyrosine antibody and a […], and finally quantitatively determining the c-Met kinase activity through a time-resolved fluorescence method.
The specific experiment is implemented by using a Z′-LYTE kinase assay kit (Invitrogen, item PV4122). First, the test compound is diluted into 8 different concentrations from 100 μM at an interval of 1:5 with an ATP solution (Invitrogen, item PV3227); 5 μL 2×c-Met (Invitrogen, item PV3143) and 2×Z′-LYTE Tyr 6 substrate peptide are respectively taken up, and added to a 384-well microtiter plate, 5 μL diluted different concentrations of test compound are added in sequence, and the lid is closed. The microtiter plate is incubated for 60 min at room temperature (20° C. to 25° C.); and then 5 μL […] is added, and the lid is closed. The microtiter plate is incubated for 60 min at room temperature (20° C. to 25° C.); and then 5 μL termination reagent is added to the reaction well, to terminate the reaction. Finally, the fluorescence intensity (OD400) of each well is determined in a fluorescence analyzer (excitation wavelength: 400 nm). The inhibition rate is calculated, and the half inhibitory concentration (IC50) of the compound is calculated according to the inhibition rates of different concentrations.
For a negative control group, except that test compound (replaced by 5 μL ATP solution) is not added, all the other reagents are added. In addition, an enzyme-free control group (that is, blank group) is set.

In test [1] the test system is Human gastric cancer cell SNU-5. In words: Inhibition of in vitro proliferation of human gastric cancer cell SNU-5 (SRB). The format is cell-based. To be noted: SNU-5 cells, 72-hr agent treatment, read-out: Strength of activity (inhibition on SNU-5, IC50). The procedure:
Human gastric cancer cells SNU-5 are cultured in an IMDM medium containing 20% fetal bovine serum, and the culture conditions are 37° C. and 5% CO2. Tumor cells are inoculated in a 96-well plate, and after 24-hr sidewall growth, 9 different concentrations of (1 to 30000 nM) an agent are added, after 72-hr agent treatment, the medium is discarded, the cells are fixed by cold trichloroacetic acid, and then dyed with a sulforhodamine B (SRB) solution. Unbound SRB is washed off, and SRB bound with protein was dissolved with Tris, the OD is determined at a wavelength of 510 nm by a microplate reader, and the cell growth inhibition rate is calculated according to the following equation: Inhibition rate=(OD of control well-OD of administered well)/OD of control well×100%
According to the inhibition rates of different concentrations, the half inhibitory concentration IC50 is calculated by using a Logit method.

Test [2] deals with human malignant glioma U87-MG xenografts. In words: Efficacy on human malignant glioma U87-MG xenografts in nude mice. The format is in vivo, BALB/cA-nude nude mice. As to conditions: 100 mg/kg orally once per day for 16 days. The procedure:
The human malignant glioma U87-MG is purchased from ATCC (American Type Culture Collection), America.
BALB/cA-nude nude mice (♀, 6-7 weeks old) are purchased from Shanghai SLAC Laboratory Animal Co. Ltd. Breeding environment: SPF grade.
In vitro-cultured malignant glioma U87-MG cells are inoculated subcutaneously in nude mice, and after the tumor grows to a size of 100 to 250 mm^3, the animals are randomly divided into groups (d0). The dose of the test agent is 100 mg/kg, and the agent is orally administered once per day for continuous 16 days. The volume of the tumor is measured two to three times per week, the mice are weighed, and the data is recorded. The tumor volume (V) is calculated according to the equation: V=1/2×a×b^2, where a and b respectively represent length and width.
The antineoplastic efficacy is evaluated according to tumor inhibition rate, and the tumor inhibition rate is calculated according to the equation below: Tumor inhibition rate=1−(T−T0)/(C−C0), • where T and C are respectively tumor volumes of the test agent group mice and the blank group mice at the end of the experiment; and T0 and C0 are tumor volumes at the start of the experiment.
In general terms: Xenograft models place foreign cells or tissue in a host animal.

Broadly, the IC50 is the point on the concentration scale where inhibition reaches its midpoint.

Where two headings read alike, the source gives them in different places. A value given as a limit tells only on which side of the number the result lay.

T1 sequence (P08581 25-1390): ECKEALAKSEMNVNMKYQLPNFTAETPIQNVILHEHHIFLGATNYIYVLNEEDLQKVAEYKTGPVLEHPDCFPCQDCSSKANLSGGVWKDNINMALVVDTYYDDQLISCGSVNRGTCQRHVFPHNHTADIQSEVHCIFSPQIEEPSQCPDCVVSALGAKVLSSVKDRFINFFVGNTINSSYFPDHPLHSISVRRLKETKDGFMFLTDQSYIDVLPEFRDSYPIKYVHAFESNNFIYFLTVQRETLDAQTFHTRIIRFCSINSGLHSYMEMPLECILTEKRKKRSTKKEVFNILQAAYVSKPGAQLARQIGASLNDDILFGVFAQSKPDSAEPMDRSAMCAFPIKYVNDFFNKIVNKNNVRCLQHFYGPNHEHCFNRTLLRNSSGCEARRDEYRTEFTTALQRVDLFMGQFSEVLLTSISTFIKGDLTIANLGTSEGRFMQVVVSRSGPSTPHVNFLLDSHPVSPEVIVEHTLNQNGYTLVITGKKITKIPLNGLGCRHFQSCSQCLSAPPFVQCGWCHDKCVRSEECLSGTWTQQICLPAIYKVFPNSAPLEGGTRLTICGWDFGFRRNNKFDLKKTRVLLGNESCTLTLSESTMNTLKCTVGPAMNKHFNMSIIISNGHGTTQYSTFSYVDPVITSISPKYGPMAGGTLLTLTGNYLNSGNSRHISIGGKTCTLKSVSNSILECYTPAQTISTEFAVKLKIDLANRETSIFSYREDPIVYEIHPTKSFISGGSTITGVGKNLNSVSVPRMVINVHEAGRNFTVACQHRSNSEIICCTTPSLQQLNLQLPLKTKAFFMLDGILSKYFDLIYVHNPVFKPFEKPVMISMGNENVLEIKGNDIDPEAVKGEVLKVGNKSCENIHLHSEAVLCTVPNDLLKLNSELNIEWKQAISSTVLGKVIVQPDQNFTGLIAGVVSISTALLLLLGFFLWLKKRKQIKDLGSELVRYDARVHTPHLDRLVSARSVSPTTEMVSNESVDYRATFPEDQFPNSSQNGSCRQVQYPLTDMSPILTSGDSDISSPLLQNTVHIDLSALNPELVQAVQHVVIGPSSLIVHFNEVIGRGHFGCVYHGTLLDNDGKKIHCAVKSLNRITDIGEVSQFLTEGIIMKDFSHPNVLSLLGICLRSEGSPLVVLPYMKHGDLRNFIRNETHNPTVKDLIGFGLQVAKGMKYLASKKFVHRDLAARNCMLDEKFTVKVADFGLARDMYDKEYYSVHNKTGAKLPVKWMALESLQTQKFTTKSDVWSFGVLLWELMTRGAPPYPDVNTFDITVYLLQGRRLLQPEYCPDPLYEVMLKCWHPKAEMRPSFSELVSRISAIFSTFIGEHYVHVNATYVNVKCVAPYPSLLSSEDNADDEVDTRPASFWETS

Take `Nc1cc(Oc2ccc(NC(=O)c3cc4ncsc4n(-c4ccccc4CCO)c3=O)cc2F)ccn1` [Embodiment 18]: the IC50 was 100 to 1000 nM at c-Met kinase and 500 to 5000 nM in test [1] (Homo sapiens).

Regarding `COc1ccc2c(Oc3ccc(NC(=O)c4cc5ncsc5n(-c5ccc(F)cc5)c4=O)cc3F)ccnc2c1` [Embodiment 3], the IC50 at c-Met kinase lay within 10 to 100 nM; in test [1] (Homo sapiens), 100 to 500 nM. Also, the “Tumor Inhibition Rate (%)” value in test [2] worked out at 91%.

Consider `Nc1cc(Oc2ccc(NC(=O)c3cc4ncsc4n(-c4ccc(F)cc4)c3=O)cc2F)ccn1` [Embodiment 1], for which the IC50 is 10 to 100 nM at c-Met kinase and below 100 nM in test [1] (Homo sapiens). In addition, the “Tumor Inhibition Rate (%)” value in test [2] is listed as 62%.

Regarding `O=C(Nc1ccc(Oc2ccnc(NC(=O)N3CCC(O)CC3)c2)c(F)c1)c1cc2ncsc2n(-c2ccc(F)cc2)c1=O` [Embodiment 12], the IC50 is 10 to 100 nM on c-Met kinase and 100 to 500 nM in test [1] (Homo sapiens).

As to `O=C(Nc1ccc(Oc2ccnc(NC(=O)N3CCOCC3)c2Cl)c(F)c1)c1cc2ncsc2n(-c2ccc(F)cc2)c1=O` [Embodiment 17], the IC50 on c-Met kinase is below 10 nM; in test [1] (Homo sapiens), 100 to 500 nM.

In the case of `COc1cc2c(Oc3ccc(NC(=O)c4cc5ncsc5n(-c5ccc(F)cc5)c4=O)cc3F)ccnc2cc1OCCCN1CCOCC1` [Embodiment 5], the values for the IC50 (on c-Met kinase; in test [1]) were below 10 nM and below 100 nM, respectively. Also, the “Tumor Inhibition Rate (%)” value in test [2] came out at 74%.

Regarding `COc1cc2c(Oc3ccc(NC(=O)c4cc5ncsc5n(-c5ccccc5CCO)c4=O)cc3F)ccnc2cc1OCCCN1CCOCC1` [Embodiment 22], the IC50 is above 1000 nM on c-Met kinase and 500 to 5000 nM in test [1] (Homo sapiens).

For `Cn1cnc(-c2cc3nccc(Oc4ccc(NC(=O)c5cc6ncsc6n(-c6ccc(F)cc6)c5=O)cc4F)c3s2)c1` [Embodiment 6], the 50% inhibitory concentration (IC50) at c-Met kinase was 10 to 100 nM; in test [1], 100 to 500 nM.

For the molecule `CN1CCN(C(=O)Nc2cc(Oc3ccc(NC(=O)c4cc5ncsc5n(-c5ccc(F)cc5)c4=O)cc3F)ccn2)CC1` [Embodiment 10], the IC50 was 100 to 1000 nM at c-Met kinase and below 100 nM in test [1] (Homo sapiens).

For the molecule `O=C(Nc1ccc(Oc2ccnc3[nH]ccc23)c(F)c1)c1cc2ncsc2n(-c2ccc(F)cc2)c1=O` [Embodiment 4], the IC50 at c-Met kinase is below 10 nM; in test [1], 100 to 500 nM. In test [2], the “Tumor Inhibition Rate (%)” value worked out at 26%.

Take `Cc1n[nH]c2nccc(Oc3ccc(NC(=O)c4cc5ncsc5n(-c5ccc(F)cc5)c4=O)cc3F)c12` [Embodiment 8]: the IC50 at c-Met kinase fell in the range of 10 to 100 nM; in test [1] (Homo sapiens), 500 to 5000 nM.

`Cn1ncc2cc(C(=O)Nc3ccc(Oc4ccnc(N)c4Cl)c(F)c3)c(=O)n(-c3ccc(F)cc3)c21` [Embodiment 29]: the IC50 is below 10 nM on c-Met kinase and below 100 nM in test [1] (Homo sapiens).

`COc1cc2c(Oc3ccc(NC(=O)c4cc5cnn(C)c5n(-c5ccc(F)cc5)c4=O)cc3F)ccnc2cc1OCCCN1CCOCC1` [Embodiment 32]: the figures for the IC50 (on c-Met kinase; in test [1] (Homo sapiens)) were 100 to 1000 nM and 100 to 500 nM, respectively.

`COc1ccc2c(Oc3ccc(NC(=O)c4cc5nc(N(C)C)sc5n(-c5ccc(F)cc5)c4=O)cc3F)ccnc2c1` [Embodiment 25]: the IC50 was 100 to 1000 nM on c-Met kinase and 500 to 5000 nM in test [1] (Homo sapiens).

Turning to `CN1CCN(C(=O)Nc2nccc(Oc3ccc(NC(=O)c4cc5ncsc5n(-c5ccc(F)cc5)c4=O)cc3F)c2Cl)CC1` [Embodiment 16], the IC50 on c-Met kinase is 100 to 1000 nM; in test [1] (Homo sapiens) it was 100 to 500 nM.

For `Nc1nccc(Oc2ccc(NC(=O)c3cc4ncsc4n(-c4ccc(F)cc4)c3=O)cc2F)c1Cl` [Embodiment 2], the IC50 on c-Met kinase is below 10 nM; in test [1] (Homo sapiens), 100 to 500 nM. Besides, the “Tumor Inhibition Rate (%)” value in test [2] was determined as 16%.

In the case of `CCn1cnc(-c2cc3nccc(Oc4ccc(NC(=O)c5cc6ncsc6n(-c6ccc(F)cc6)c5=O)cc4F)c3s2)c1` [Embodiment 7], the IC50 was 10 to 100 nM on c-Met kinase and 100 to 500 nM in test [1] (Homo sapiens).

For the molecule `O=C(Nc1ccc(Oc2ccnc3[nH]ccc23)c(F)c1)c1cc2ncsc2n(-c2ccccc2CCO)c1=O` [Embodiment 21], the IC50 at c-Met kinase is 10 to 100 nM; in test [1] (Homo sapiens), below 100 nM.

For the molecule `CCOc1c(C(=O)Nc2ccc(Oc3ccnc4[nH]ccc34)c(F)c2)c(=O)n(-c2ccc(F)cc2)c2scnc12` [Embodiment 51], the IC50 on c-Met kinase was 100 to 1000 nM; in test [1], 100 to 500 nM.

With `COc1ccc2c(Oc3ccc(NC(=O)c4cc5ncsc5n(-c5ccccc5CCO)c4=O)cc3F)ccnc2c1` [Embodiment 20], the IC50 was 100 to 1000 nM at c-Met kinase and below 100 nM in test [1] (Homo sapiens).

Regarding `CN(C)c1nc2cc(C(=O)Nc3ccc(Oc4ccnc(N)c4Cl)c(F)c3)c(=O)n(-c3ccc(F)cc3)c2s1` [Embodiment 23], the IC50 was in the range of 10 to 100 nM at c-Met kinase and 100 to 500 nM in test [1] (Homo sapiens).

Turning to `CN1CCOc2cc(C(=O)Nc3ccc(Oc4ccnc(N)c4Cl)c(F)c3)c(=O)n(-c3ccc(F)cc3)c21` [Embodiment 38], the IC50 at c-Met kinase fell in the range of 100 to 1000 nM; in test [1] (Homo sapiens), 500 to 5000 nM.

Turning to `CN(C)c1nc2cc(C(=O)Nc3ccc(Oc4ccnc5[nH]ccc45)c(F)c3)c(=O)n(-c3ccc(F)cc3)c2s1` [Embodiment 26], the IC50 fell in the range of 10 to 100 nM on c-Met kinase and 100 to 500 nM in test [1] (Homo sapiens).

For `CN(C)c1nc2cc(C(=O)Nc3ccc(Oc4ccnc(N)c4)c(F)c3)c(=O)n(-c3ccc(F)cc3)c2s1` [Embodiment 24], the IC50 is below 10 nM on c-Met kinase and 100 to 500 nM in test [1] (Homo sapiens).

Consider `Cn1ncc2cc(C(=O)Nc3ccc(Oc4ccnc5[nH]ccc45)c(F)c3)c(=O)n(-c3ccc(F)cc3)c21` [Embodiment 31], for which the results for the IC50 (on c-Met kinase; in test [1] (Homo sapiens)) were 10 to 100 nM and 100 to 500 nM, respectively.

As to `COc1cc2c(Oc3ccc(NC(=O)c4cc5ncn(C)c5n(-c5ccc(F)cc5)c4=O)cc3F)ccnc2cc1OCCCN1CCOCC1` [Embodiment 37], the IC50 was below 10 nM at c-Met kinase and 100 to 500 nM in test [1] (Homo sapiens).

In the case of `Cn1cnc2cc(C(=O)Nc3ccc(Oc4ccnc5[nH]ccc45)c(F)c3)c(=O)n(-c3ccc(F)cc3)c21` [Embodiment 36], the results for the IC50 (at c-Met kinase; in test [1] (Homo sapiens)) were 10 to 100 nM and 500 to 5000 nM, respectively.

With `Cn1ncc2cc(C(=O)Nc3ccc(Oc4ccnc(N)c4)c(F)c3)c(=O)n(-c3ccc(F)cc3)c21` [Embodiment 28], the values for the IC50 (on c-Met kinase; in test [1] (Homo sapiens)) were 100 to 1000 nM and 500 to 5000 nM, respectively.

For the molecule `O=C(Nc1ccc(Oc2ccnc(NC(=O)N3CCCC3)c2)c(F)c1)c1cc2ncsc2n(-c2ccc(F)cc2)c1=O` [Embodiment 9], the half-maximal inhibitory concentration (IC50) is below 10 nM at c-Met kinase and 100 to 500 nM in test [1].
